Experimental data from article PMC7558399, “In Vitro Selective Growth-Inhibitory Activities of Phytochemicals, Synthetic Phytochemical Analogs, and Antibiotics against Diarrheagenic/Probiotic Bacteria and Cancer/Normal Intestinal Cells” (Pharmaceuticals, 2020).
Where a name gives a salt, the structure may show the parent alone. Read-outs that look alike come from different tables or passages of the source.

What was measured:
Assay type in all cases: cell-based
[1] = test system: Bacillus cereus (ATCC 14579); test: Broth microdilution MIC, B. cereus; details: ATCC14579, […], median/mode, read-out: MIC
[2] = test system: Clostridium difficile (DSMZ 12056); test: microbe, parasite or virus in culture; details: Clostridioides difficile, DSMZ12056; Clostridium difficile; […]; read-out: MIC
[3] = test system: Clostridium perfringens (DSMZ 11778); test: microbe, parasite or virus in culture; details: DSMZ11778
[4] = test system: Enterococcus faecalis (ATCC 29212); test: Broth microdilution MIC, E. faecalis; details: ATCC29212, […], read-out: MIC
[5] = test system: Escherichia coli (ATCC 25922); test: Broth microdilution MIC, E. coli; details: ATCC25922, […], read-out: MIC
[6] = test system: E. coli 0175:H7 (NCTC 12900); test: microbe, parasite or virus in culture; details: Escherichia coli, NCTC12900
[7] = test system: Listeria monocytogenes (ATCC 7644); test: Broth microdilution MIC, L. monocytogenes
[8] = test system: Shigella flexneri (ATCC 12022); test: microbe, parasite or virus in culture
[9] = test system: Salmonella enterica ssp. enterica serovar Enteritidis (ATCC 13076); test: Broth microdilution MIC, Salmonella Enteritidis; details: Salmonella Enteritidis, […], read-out: MIC
[10] = test system: S. enterica ssp. enterica serovar Typhimurium (ATCC 14028); test: Broth microdilution MIC, Salmonella Typhimurium; details: Salmonella Typhimurium, […], read-out: MIC
[11] = test system: Vibrio parahaemolyticus (ATCC 17802); test: Broth microdilution MIC, V. parahaemolyticus; details: ATCC17802, […], read-out: MIC
[12] = test system: Yersinia enterocolitica (ATCC 9610); test: Broth microdilution MIC, Y. enterocolitica; details: ATCC9610, […], read-out: MIC
[13] = test system: diarrheagenic bacteria (12 strains); test: microbe, parasite or virus in culture
[14] = test system: Bacteroides fragilis (ATCC 25285); test: Broth microdilution MIC, B. fragilis
[15] = test system: Bifidobacterium adolescentis (DSMZ 20087); test: Broth microdilution MIC, B. adolescentis
[16] = test system: Bifidobacterium animalis spp. lactis (DSMZ 10140); test: Broth microdilution MIC, B. animalis spp. lactis; details: DSMZ10140
[17] = test system: Bifidobacterium bifidum (ATCC 29521); test: Broth microdilution MIC, B. bifidum
[18] = test system: Bifidobacterium breve (ATCC 15700); test: Broth microdilution MIC, B. breve
[19] = test system: Bifidobacterium longum ssp. longum (DSMZ 20219); test: Broth microdilution MIC, B. longum ssp. longum; details: DSMZ20219
[20] = test system: Lactobacillus casei (DSMZ 20011); test: Broth microdilution MIC, L. casei; details: Lacticaseibacillus casei, DSMZ20011; Lactobacillus casei; […]; read-out: MIC
[21] = test system: Lactobacillus reuteri (CCM 3625); test: Broth microdilution MIC, L. reuteri; details: Limosilactobacillus reuteri, CCM3625
[22] = test system: Lactobacillus rhamnosus (CCM 7091); test: Broth microdilution MIC, L. rhamnosus; details: Lacticaseibacillus rhamnosus, CCM7091; Lactobacillus rhamnosus; […]; read-out: MIC
[23] = test system: probiotic bacteria (9 strains); test: Broth microdilution MIC, probiotic bacteria as a group (mean or range over strains)
[24] = test system: HT29 (ATCC HTB 38) intestinal cancer cells; test: MTT cytotoxicity assay, HT29; details: Homo sapiens; for IC50: read-out: IC50 ± SD; for IC80: read-out: IC80 ± SD (80% inhibitory concentration of proliferation)
[25] = test system: Caco-2 (ATCC HTB 37) intestinal cancer cells; test: MTT cytotoxicity assay, Caco-2; details: Homo sapiens, Caco-2, 72 h; for IC50: read-out: IC50 ± SD; for IC80: read-out: IC80 ± SD (80% inhibitory concentration of proliferation)
[26] = test system: intestinal cancer cells (HT29 and Caco-2); test: MTT cytotoxicity assay, mean for intestinal cancer cells; details: for IC50: read-out: x¯ -CC ± SD: mean IC50 for intestinal cancer cells; for IC80: read-out: x¯ -CC ± SD: mean IC80 for intestinal cancer cells
[27] = test system: FHs 74 Int (ATCC CCL 241) intestinal normal cells; test: MTT cytotoxicity assay, FHs 74 Int; details: 72 h; for IC50 / IC80: FHs74Int
[28] = mean of 12 strains, >512 replaced with 1024, read-out: x¯ -DB ± SD: mean MIC for diarrheagenic bacteria
[29] = FHs 74 Int (intestinal normal cells), MTT

Compound	MIC [1]	MIC [2]	MIC [3]	MIC [4]	MIC [5]	MIC [6]	MIC [9]	MIC [10]	MIC [11]	MIC [12]	MIC [13, 28]	MIC [20]	MIC [22]	IC50 [25]	IC80 [25]	IC50 [26]	IC80 [26]	further results
C[n+]1cc2c3c(ccc2c2ccc4cc5c(cc4c21)OCO5)OCO3 [SG, sanguinarine chloride]	128 µg/mL	64 µg/mL	128 µg/mL	32 µg/mL	256 µg/mL	128 µg/mL	256 µg/mL	512 µg/mL	32 µg/mL	256 µg/mL	156 ± 137 µg/mL	32 µg/mL	64 µg/mL	0.8 ± 0.1 µg/mL	1.5 ± 0.1 µg/mL	0.8 ± 0.05 µg/mL	1.6 ± 0.2 µg/mL	MIC ([7]; ATCC7644): 16 µg/mL; MIC ([8]; ATCC12022): 64 µg/mL; MIC ([14]; ATCC25285): 32 µg/mL; MIC ([15]; DSMZ20087): 16 µg/mL; MIC ([16]; Bifidobacterium animalis): 32 µg/mL; MIC ([17]; ATCC29521): 32 µg/mL; MIC ([18]; ATCC15700): 32 µg/mL; MIC ([19]; Bifidobacterium longum): 64 µg/mL; MIC [21]: 32 µg/mL; MIC ([23]; read-out: x¯ -PB ± SD: mean MIC for probiotic bacteria): 37.3 ± 15 µg/mL; IC50 ([24]; HT-29, HT29, MTT, 72 h): 0.9 ± 0.2 µg/mL; IC80 ([24]; HT-29, HT29, MTT, 72 h): 1.8 ± 0.4 µg/mL; IC50 ([27]; read-out: IC50 ± SD): 1 ± 0.1 µg/mL; IC80 ([27]; read-out: IC80 ± SD (80% inhibitory concentration of proliferation)): 1.9 ± 0.2 µg/mL
CN[C@H](CC(C)C)C(=O)N[C@H]1C(=O)N[C@@H](CC(N)=O)C(=O)N[C@H]2C(=O)N[C@H]3C(=O)N[C@H](C(=O)N[C@H](C(=O)O)c4cc(O)cc(O)c4-c4cc3ccc4O)[C@H](O)c3ccc(c(Cl)c3)Oc3cc2cc(c3O[C@@H]2O[C@H](CO)[C@@H](O)[C@H](O)[C@H]2O[C@H]2C[C@](C)(N)[C@H](O)[C@H](C)O2)Oc2ccc(cc2Cl)[C@H]1O [VM, vancomycin hydrochloride]	256 µg/mL	2 µg/mL	1 µg/mL	> 512 µg/mL	> 512 µg/mL	512 µg/mL	512 µg/mL	512 µg/mL	256 µg/mL	> 512 µg/mL	513 ± 404 µg/mL	256 µg/mL	64 µg/mL	> 512 µg/mL	> 512 µg/mL	> 512 µg/mL	> 512 µg/mL	MIC ([7]; ATCC7644, growth inhibited by ≥80%, read-out: MIC): 8 µg/mL; MIC ([8]; ATCC12022, […], read-out: MIC): > 512 µg/mL; MIC ([13]; both clostridial species tested, read-out: MICs): 0.5 to 8 µg/mL; MIC ([14]; ATCC25285, […], read-out: MIC): 32 µg/mL; MIC ([15]; DSMZ20087, […], read-out: MIC): 2 µg/mL; MIC ([16]; Bifidobacterium animalis spp. lactis, […], read-out: MIC): 2 µg/mL; MIC ([17]; ATCC29521, […], read-out: MIC): 4 µg/mL; MIC ([18]; ATCC15700, […], read-out: MIC): 4 µg/mL; MIC ([19]; Bifidobacterium longum ssp. longum, […], read-out: MIC): 2 µg/mL; MIC ([21]; Lactobacillus reuteri, […], read-out: MIC): 64 µg/mL; MIC ([23]; bifidobacteria, range over strains, read-out: MICs): 2 to 4 µg/mL; MIC ([23]; lactobacilli, range over strains, read-out: MICs): 64 to 256 µg/mL; MIC ([23]; mean of 9 strains, >512 replaced with 1024, read-out: x¯ -PB ± SD: mean MIC for probiotic bacteria): 47.8 ± 78 µg/mL; IC50 ([24]; HT-29, 72 h): > 512 µg/mL; IC80 ([24]; HT-29, 72 h): > 512 µg/mL; IC50 ± SD [27, 29]: - (Not active (MIC/IC50/80 > 512 μg/mL, the value 1024 μg/mL was used for average calculation)); IC80 ± SD (80% inhibitory concentration of proliferation) [27, 29]: - (Not active (MIC/IC50/80 > 512 μg/mL, the value 1024 μg/mL was used for average calculation)); IC50 ([27]; read-out: IC50 ± SD, FHs 74 Int (intestinal normal cells), MTT): > 512 µg/mL; IC80 ([27]; read-out: IC80 ± SD (80% inhibitory concentration of proliferation), FHs 74 Int (intestinal normal cells), MTT): > 512 µg/mL
